{"source": "patent US20090082258A1", "about": "“Means and Methods for Treating Advanced Stage Neuroblastoma” (priority 2005, published 2009)", "key": {"[1]": {"tested_on": "various tumour cells", "experiment": "Antitumoral effects in tumour cells, general statements and comparison with other agents", "assay_type": "cell-based", "details": "higher concentration", "description": "The differentiation inducing agent all-trans retinoic acid has to be administered in a 1000-fold higher concentration compared to HC-toxin, acts differently as compared with compounds of the general formula (I) and causes side effects known as the retinoic acid syndrome.\nThe compounds having a structure as shown in the general formula (I) elicit the aforementioned antitumoral effects in an extremely low dosage already, i.e. at nanomolar concentrations (5-20 nM), in various tumour cells. The mode of action of the compounds apparently encompasses inhibition of histone deacetylases. This finding is supported by the observation that treatment of MYCN single copy and amplified neuroblastoma cells with a compound of the present invention in nanomolar concentration (e.g. 15 nM) leads to the accumulation of acetylated H4-histones within one to six hours being an indicator for a histone deacetylase inhibitor."}, "[2]": {"tested_on": "nuclear histone deacetylases", "experiment": "Accumulation of acetylated histone H4 in SH-EP cells (Western blot)", "assay_type": "cell-based", "details": "6 h, 15 mM HC-Toxin [sic]", "description": "The cells were treated for 6 hours with HC-toxin or the indicated histone deacetylase inhibitors as well as all-trans retinoic acid. Whole-cell extracts were obtained and subjected to Western-Blot analysis using an antibody, which specifically recognizes acetylated histone H4 (H4 Acetyl).\nSH-EP-neuroblastoma cells were treated with […] HC-Toxin for 6 h. Subsequently, accumulation of acetylated histone H4 was investigated."}, "[3]": {"tested_on": "various tumour cells", "details": "cited from earlier work"}, "[4]": {"tested_on": "primary skin fibroblasts", "experiment": "Cell cycle of primary non-transformed skin fibroblasts", "assay_type": "cell-based, human", "details": "15 nM vs methanol control", "description": "(§1) FIG. 3: Influence of HC-Toxin upon proliferation and cell cycle of primary non-transformed skin fibroblasts.\n(§2) In order to determine the effects of HC-Toxin on “normal” body cells, primary skin fibroblasts were treated under the same conditions."}, "[5]": {"tested_on": "SH-EP cells having an tetracycline inducible MYCN (Tet21N)", "experiment": "Proliferation of SH-EP cells with tetracycline inducible MYCN (Tet21N)", "assay_type": "cell-based", "details": "stronger inhibition than in SH-EP", "description": "(§3) FIG. 4: Influence of HC-Toxin upon the proliferation of MYCN amplified neuroblastoma cells and cells, which overexpress MYCN. (a) BE(2)-C neuroblastoma cells, (b) WAC2 neuroblastoma cells, and (c) Tet21N neuroblastoma cells.\n(§4) MYCN amplified neuroblastoma cells (Be(2)-C), MYCN stably transfected SH-EP-neuroblastoma cells (WAC2) as well as SH-EP cells having an tetracycline inducible MYCN (Tet21N) were treated by HC-Toxin."}, "[6]": {"tested_on": "SH-EP neuroblastoma cells", "experiment": "Proliferation of SH-EP neuroblastoma cells", "assay_type": "cell-based", "details": "10 to 20 nM", "description": "(§5) FIG. 2: Influence of HC-Toxin upon proliferation, cell cycle, and apoptosis of SH-EP neuroblastoma cells.\n(§6) 5×10*4 SH-EP neuroblastoma cells were cultured in RPMI 1640 medium (including 10% FBS, 1% Pen/Strep). After 24 hours of culture, the cells were treated up to 96 h with 10 to 20 nM HC-Toxin or, as solvent control, with methanol (MeOH) at 37° C., 5% CO2. The morphological changes of the cells were investigated using phase contrast microscopy. After 36 h of treatment, neurite outgrowth was observed. After 72 h of treatment, said neurite outgrowth reached its maximum and was constant if treatment was prolonged (not shown). […] More than 95% of the SH-EP neuroblastoma cells differentiate morphologically when treated with 15 nM HC-Toxin (see FIG. 1c).\n(§7) An increase in apoptotic cells from 5% to 20% was observed after 48 h to 72 h of HC-toxin treatment in a dose dependent manner (FIG. 2c)."}, "[7]": {"tested_on": "SH-EP neuroblastoma cells", "experiment": "Cell cycle of SH-EP neuroblastoma cells", "assay_type": "cell-based", "details": "15 nM vs control cells", "description": "as §5, §7"}, "[8]": {"tested_on": "MYCN stably transfected SH-EP-neuroblastoma cells (WAC2)", "experiment": "Proliferation of MYCN stably transfected SH-EP neuroblastoma cells WAC2", "assay_type": "cell-based", "details": "stronger inhibition than in SH-EP", "description": "as §3, §4"}, "[9]": {"tested_on": "MYCN amplified neuroblastoma cells (Be(2)-C)", "experiment": "Proliferation of MYCN amplified neuroblastoma cells Be(2)-C", "assay_type": "cell-based", "details": "stronger inhibition than in SH-EP", "description": "as §3, §4"}, "[10]": {"tested_on": "SH-EP neuroblastoma cells", "experiment": "Apoptosis of SH-EP neuroblastoma cells", "assay_type": "cell-based", "details": "FIG. 2c", "description": "as §5, §7"}, "[11]": {"tested_on": "SH-EP neuroblastoma cells", "experiment": "Neuronal differentiation of SH-EP neuroblastoma cells (phase contrast microscopy, immunocytochemistry)", "assay_type": "cell-based", "description": "FIG. 1: HC-Toxin induces neuronal differentiation in SH-EP MYCN-single copy neuroblastoma cells. Cells with neurites longer than twice the diameter of the cell body have been deemed as differentiated cells.\nas §6"}, "[12]": {"tested_on": "primary skin fibroblasts", "experiment": "Proliferation of primary non-transformed skin fibroblasts", "assay_type": "cell-based, human", "details": "10-20 nM, same conditions as SH-EP", "description": "as §1, §2"}}, "note": "Entries after “also recorded” stand apart in the source; their conditions may differ.", "data": [{"smiles": "CC1=C(/C=C/C(C)=C/C=C/C(C)=C/C(=O)O)C(C)(C)CCC1", "note": "[all-trans retinoic acid, reference compound]", "values": [{"measurement": "concentration to be administered compared to HC-toxin", "setting": "[1]", "result": 1000, "unit": "fold"}, {"measurement": "accumulation of acetylated histone H4", "setting": "[2]", "result": "no induction of hyperacetylation of histone H4"}]}, {"smiles": "CC(/C=C/C(=O)NO)=C\\[C@@H](C)C(=O)c1ccc(N(C)C)cc1", "note": "[trichostatin A]", "values": [{"measurement": "cytotoxic effects", "setting": "[3]", "result": "strong cytotoxic effects"}]}, {"smiles": "CCCC(CCC)C(=O)O", "note": "[valproic acid]", "values": [{"measurement": "efficient concentration", "setting": "[3]; not achievable in vivo", "result": "only efficient in millimolar concentrations"}]}, {"smiles": "CC1NC(=O)C(C)NC(=O)C2CCCN2C(=O)C(CCCCCC(=O)C2CO2)NC1=O", "note": "(stereo not drawn) [HC-Toxin, Helminthosporium carbonum toxin]", "values": [{"measurement": "cell cycle of primary skin fibroblasts", "setting": "[4]", "result": "does not alter the cell cycle; also recorded: No significant changes"}, {"measurement": "inhibition of proliferation of Tet21N cells", "setting": "[5]", "result": "efficiently inhibits proliferation"}, {"measurement": "inhibition of SH-EP neuroblastoma cell proliferation", "setting": "[6]", "result": "inhibits cell proliferation in a concentration dependent manner; also recorded: concentration-dependent inhibition"}, {"measurement": "cell cycle distribution of SH-EP cells", "setting": "[7]", "result": "accumulation of the HC-Toxin treated cells in the G0/1 phase"}, {"measurement": "inhibition of proliferation of WAC2 cells", "setting": "[8]", "result": "efficiently inhibits proliferation"}, {"measurement": "inhibition of proliferation of Be(2)-C cells", "setting": "[9]", "result": "efficiently inhibits proliferation"}, {"measurement": "induction of apoptosis in SH-EP cells", "setting": "[10]", "result": "induces apoptosis in a concentration dependent manner"}, {"measurement": "SH-EP neuroblastoma cells that differentiate morphologically", "setting": "[11]; 15 nM HC-Toxin, neurites longer than twice the diameter of the cell body", "result": "More than 95%"}, {"measurement": "time of treatment after which neurite outgrowth reached its maximum", "setting": "[11]; 10 to 20 nM, SH-EP cells", "result": 72, "unit": "h"}, {"measurement": "time of treatment after which neurite outgrowth was observed", "setting": "[11]; 10 to 20 nM, SH-EP cells", "result": 36, "unit": "h"}, {"measurement": "accumulation of acetylated histone H4", "setting": "[2]", "result": "induces hyperacetylation of histone H4"}, {"measurement": "accumulation of acetylated histone H4", "setting": "[2]; listed as iHC-Toxin", "result": "induce accumulation of acetylated histone H4"}, {"measurement": "proliferation of primary skin fibroblasts", "setting": "[12]", "result": "No significant changes"}, {"measurement": "proliferation of primary skin fibroblasts", "setting": "[12]; listed as HC-toxin", "result": "has no influence upon the proliferation"}]}]}
